# Key:
# Assay in all cases: Zone of inhibition screen, 96 well agar array format
# Format in all cases: cell-based
# Design in all cases: scale not given here
# [1] = system: S. epidermidis (ATCC 12228)
# Method in brief: (§1)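 Antibacterial testing on a 96-well agar array; each compound screened separately.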
# E. faecalis (CL 4877) = system: E. faecalis (CL 4877)
# Method in brief: as §1
# S. aureus (ATCC 29213) = conditions: zone of inhibition relative to 1 mg/ml p-chlorobiphenylvancomycin
# Method in brief: as §1
# [2] = zone of inhibition relative to 1 mg/ml p-chlorobiphenylvancomycin
# [3] = zone of inhibition relative to 1 mg/ml stock solution of p-chlorobiphenylvancomycin
SMILES,"zone score, S. epidermidis ATCC 12228 [1, 2]","zone score, E. faecalis CL 4877 (E. faecalis (CL 4877); [2])","zone score, S. aureus ATCC 29213 (S. aureus (ATCC 29213))",other results
CC(NC=O)C(=O)NC1C(=O)NC(CC(N)=O)C(=O)NC2C(=O)NC3C(=O)NC(C(=O)NC(C(=O)O)c4cc(O)cc(O)c4-c4cc3ccc4O)C(O)c3ccc(c(Cl)c3)Oc3cc2cc(c3OC2OC(CO)C(O)C(O)C2OC2CC(C)(NCc3ccc(-c4ccc(Cl)cc4)cc3)C(O)C(C)O2)Oc2ccc(cc2Cl)C1O (mixture of isomers) [Compound 325],2,2,,
CC1OC(OC2C(Oc3c4cc5cc3Oc3ccc(cc3Cl)C(O)C3NC(=O)C(NC(=O)C5NC(=O)C(CC(N)=O)NC(=O)C(NC(=O)C(N)CC(N)=O)C(O)c5ccc(c(Cl)c5)O4)c4ccc(O)c(c4)-c4c(O)cc(O)cc4C(C(=O)O)NC3=O)OC(CO)C(O)C2O)CC(C)(NCc2ccc(-c3ccc(Cl)cc3)cc2)C1O (stereo not drawn) [Compound 53],,,,"zone score, S. epidermidis ATCC 12228 [1, 3]: 2; zone score, E. faecalis CL 4877 (E. faecalis (CL 4877); [3]): 2"
CC(=O)N1CCC(C(=O)NC2C(=O)NC(CC(N)=O)C(=O)NC3C(=O)NC4C(=O)NC(C(=O)NC(C(=O)O)c5cc(O)cc(O)c5-c5cc4ccc5O)C(O)c4ccc(c(Cl)c4)Oc4cc3cc(c4OC3OC(CO)C(O)C(O)C3OC3CC(C)(NCc4ccc(-c5ccc(Cl)cc5)cc4)C(O)C(C)O3)Oc3ccc(cc3Cl)C2O)CC1 (stereo not drawn) [Compound 99],,,,"zone score, S. epidermidis ATCC 12228 [1, 3]: 2"
Cc1cn(CC(=O)NC2C(=O)NC(CC(N)=O)C(=O)NC3C(=O)NC4C(=O)NC(C(=O)NC(C(=O)O)c5cc(O)cc(O)c5-c5cc4ccc5O)C(O)c4ccc(c(Cl)c4)Oc4cc3cc(c4OC3OC(CO)C(O)C(O)C3OC3CC(C)(NCc4ccc(-c5ccc(Cl)cc5)cc4)C(O)C(C)O3)Oc3ccc(cc3Cl)C2O)c(=O)[nH]c1=O (stereo not drawn) [Compound 207],2,,,
Cc1cnc(C(=O)NC2C(=O)NC(CC(N)=O)C(=O)NC3C(=O)NC4C(=O)NC(C(=O)NC(C(=O)O)c5cc(O)cc(O)c5-c5cc4ccc5O)C(O)c4ccc(c(Cl)c4)Oc4cc3cc(c4OC3OC(CO)C(O)C(O)C3OC3CC(C)(NCc4ccc(-c5ccc(Cl)cc5)cc4)C(O)C(C)O3)Oc3ccc(cc3Cl)C2O)cn1 (stereo not drawn) [Compound 243],,2,2,
CC1OC(OC2C(Oc3c4cc5cc3Oc3ccc(cc3Cl)C(O)C3NC(=O)C(NC(=O)C5NC(=O)C(CC(N)=O)NC(=O)C(NC(=O)c5cccc(SC(F)(F)F)c5)C(O)c5ccc(c(Cl)c5)O4)c4ccc(O)c(c4)-c4c(O)cc(O)cc4C(C(=O)O)NC3=O)OC(CO)C(O)C2O)CC(C)(NCc2ccc(-c3ccc(Cl)cc3)cc2)C1O (stereo not drawn) [Compound 248],,2,2,
CC(=O)Oc1cc(C(=O)NC2C(=O)NC(CC(N)=O)C(=O)NC3C(=O)NC4C(=O)NC(C(=O)NC(C(=O)O)c5cc(O)cc(O)c5-c5cc4ccc5O)C(O)c4ccc(c(Cl)c4)Oc4cc3cc(c4OC3OC(CO)C(O)C(O)C3OC3CC(C)(NCc4ccc(-c5ccc(Cl)cc5)cc4)C(O)C(C)O3)Oc3ccc(cc3Cl)C2O)cc(OC(C)=O)c1OC(C)=O (stereo not drawn) [Compound 250],2,,,
CC1OC(OC2C(Oc3c4cc5cc3Oc3ccc(cc3Cl)C(O)C3NC(=O)C(NC(=O)C5NC(=O)C(CC(N)=O)NC(=O)C(NC(=O)Cc5ccc(F)c(F)c5)C(O)c5ccc(c(Cl)c5)O4)c4ccc(O)c(c4)-c4c(O)cc(O)cc4C(C(=O)O)NC3=O)OC(CO)C(O)C2O)CC(C)(NCc2ccc(-c3ccc(Cl)cc3)cc2)C1O (stereo not drawn) [Compound 252],2,,,
CC1OC(OC2C(Oc3c4cc5cc3Oc3ccc(cc3Cl)C(O)C3NC(=O)C(NC(=O)C5NC(=O)C(CC(N)=O)NC(=O)C(NC(=O)c5cc(C(F)(F)F)cc(C(F)(F)F)c5)C(O)c5ccc(c(Cl)c5)O4)c4ccc(O)c(c4)-c4c(O)cc(O)cc4C(C(=O)O)NC3=O)OC(CO)C(O)C2O)CC(C)(NCc2ccc(-c3ccc(Cl)cc3)cc2)C1O (stereo not drawn) [Compound 254],,2,2,
CC1OC(OC2C(Oc3c4cc5cc3Oc3ccc(cc3Cl)C(O)C3NC(=O)C(NC(=O)C5NC(=O)C(CC(N)=O)NC(=O)C(NC(=O)c5cc(O)cc(O)c5)C(O)c5ccc(c(Cl)c5)O4)c4ccc(O)c(c4)-c4c(O)cc(O)cc4C(C(=O)O)NC3=O)OC(CO)C(O)C2O)CC(C)(NCc2ccc(-c3ccc(Cl)cc3)cc2)C1O (stereo not drawn) [Compound 255],,2,2,
C[C@H]1O[C@H](O[C@H]2[C@H](Oc3c4cc5cc3Oc3ccc(cc3Cl)[C@@H](O)[C@@H](NC(=O)c3nc(N)n[nH]3)C(=O)N[C@@H](CC(N)=O)C(=O)N[C@H]5C(=O)N[C@H]3C(=O)N[C@H](C(=O)N[C@@H](C(=O)O)c5cc(O)cc(O)c5-c5cc3ccc5O)[C@H](O)c3ccc(c(Cl)c3)O4)O[C@H](CO)[C@@H](O)[C@@H]2O)C[C@@](C)(NCc2ccc(-c3ccc(Cl)cc3)cc2)[C@H]1O [Compound 256],,2,2,
CC1OC(OC2C(Oc3c4cc5cc3Oc3ccc(cc3Cl)C(O)C3NC(=O)C(NC(=O)C5NC(=O)C(CC(N)=O)NC(=O)C(NC(=O)c5cccc(F)c5)C(O)c5ccc(c(Cl)c5)O4)c4ccc(O)c(c4)-c4c(O)cc(O)cc4C(C(=O)O)NC3=O)OC(CO)C(O)C2O)CC(C)(NCc2ccc(-c3ccc(Cl)cc3)cc2)C1O (stereo not drawn) [Compound 259],2,,,
C[C@H]1O[C@H](O[C@H]2[C@H](Oc3c4cc5cc3Oc3ccc(cc3Cl)[C@@H](O)[C@@H](NC(=O)c3ccoc3)C(=O)N[C@@H](CC(N)=O)C(=O)N[C@H]5C(=O)N[C@H]3C(=O)N[C@H](C(=O)N[C@@H](C(=O)O)c5cc(O)cc(O)c5-c5cc3ccc5O)[C@H](O)c3ccc(c(Cl)c3)O4)O[C@H](CO)[C@@H](O)[C@@H]2O)C[C@@](C)(NCc2ccc(-c3ccc(Cl)cc3)cc2)[C@H]1O [Compound 260],2,,,
CC(=O)Nc1ccc(C(=O)NC2C(=O)NC(CC(N)=O)C(=O)NC3C(=O)NC4C(=O)NC(C(=O)NC(C(=O)O)c5cc(O)cc(O)c5-c5cc4ccc5O)C(O)c4ccc(c(Cl)c4)Oc4cc3cc(c4OC3OC(CO)C(O)C(O)C3OC3CC(C)(NCc4ccc(-c5ccc(Cl)cc5)cc4)C(O)C(C)O3)Oc3ccc(cc3Cl)C2O)cc1 (stereo not drawn) [Compound 265],,2,2,
COc1ccc(C=CC(=O)NC2C(=O)NC(CC(N)=O)C(=O)NC3C(=O)NC4C(=O)NC(C(=O)NC(C(=O)O)c5cc(O)cc(O)c5-c5cc4ccc5O)C(O)c4ccc(c(Cl)c4)Oc4cc3cc(c4OC3OC(CO)C(O)C(O)C3OC3CC(C)(NCc4ccc(-c5ccc(Cl)cc5)cc4)C(O)C(C)O3)Oc3ccc(cc3Cl)C2O)cc1 (stereo not drawn) [Compound 273],2,,,
CC1OC(OC2C(Oc3c4cc5cc3Oc3ccc(cc3Cl)C(O)C3NC(=O)C(NC(=O)C5NC(=O)C(CC(N)=O)NC(=O)C(NC(=O)c5ccc(O)nc5)C(O)c5ccc(c(Cl)c5)O4)c4ccc(O)c(c4)-c4c(O)cc(O)cc4C(C(=O)O)NC3=O)OC(CO)C(O)C2O)CC(C)(NCc2ccc(-c3ccc(Cl)cc3)cc2)C1O (stereo not drawn) [Compound 276],2,,,
CC(=O)CCCCC(=O)NC1C(=O)NC(CC(N)=O)C(=O)NC2C(=O)NC3C(=O)NC(C(=O)NC(C(=O)O)c4cc(O)cc(O)c4-c4cc3ccc4O)C(O)c3ccc(c(Cl)c3)Oc3cc2cc(c3OC2OC(CO)C(O)C(O)C2OC2CC(C)(NCc3ccc(-c4ccc(Cl)cc4)cc3)C(O)C(C)O2)Oc2ccc(cc2Cl)C1O (stereo not drawn) [Compound 278],,2,2,
CC1OC(OC2C(Oc3c4cc5cc3Oc3ccc(cc3Cl)C(O)C3NC(=O)C(NC(=O)C5NC(=O)C(CC(N)=O)NC(=O)C(NC(=O)c5ccc(=O)oc5)C(O)c5ccc(c(Cl)c5)O4)c4ccc(O)c(c4)-c4c(O)cc(O)cc4C(C(=O)O)NC3=O)OC(CO)C(O)C2O)CC(C)(NCc2ccc(-c3ccc(Cl)cc3)cc2)C1O (stereo not drawn) [Compound 282],,2,2,
COC(=O)C=CC(=O)NC1C(=O)NC(CC(N)=O)C(=O)NC2C(=O)NC3C(=O)NC(C(=O)NC(C(=O)O)c4cc(O)cc(O)c4-c4cc3ccc4O)C(O)c3ccc(c(Cl)c3)Oc3cc2cc(c3OC2OC(CO)C(O)C(O)C2OC2CC(C)(NCc3ccc(-c4ccc(Cl)cc4)cc3)C(O)C(C)O2)Oc2ccc(cc2Cl)C1O (stereo not drawn) [Compound 297],,2,2,
CC1OC(OC2C(Oc3c4cc5cc3Oc3ccc(cc3Cl)C(O)C3NC(=O)C(NC(=O)C5NC(=O)C(CC(N)=O)NC(=O)C(NC(=O)c5ccc(=O)[nH]n5)C(O)c5ccc(c(Cl)c5)O4)c4ccc(O)c(c4)-c4c(O)cc(O)cc4C(C(=O)O)NC3=O)OC(CO)C(O)C2O)CC(C)(NCc2ccc(-c3ccc(Cl)cc3)cc2)C1O (stereo not drawn) [Compound 298],,2,2,
COC(=O)CCCC(=O)NC1C(=O)NC(CC(N)=O)C(=O)NC2C(=O)NC3C(=O)NC(C(=O)NC(C(=O)O)c4cc(O)cc(O)c4-c4cc3ccc4O)C(O)c3ccc(c(Cl)c3)Oc3cc2cc(c3OC2OC(CO)C(O)C(O)C2OC2CC(C)(NCc3ccc(-c4ccc(Cl)cc4)cc3)C(O)C(C)O2)Oc2ccc(cc2Cl)C1O (stereo not drawn) [Compound 304],2,,,
COC(=O)CCC(=O)NC1C(=O)NC(CC(N)=O)C(=O)NC2C(=O)NC3C(=O)NC(C(=O)NC(C(=O)O)c4cc(O)cc(O)c4-c4cc3ccc4O)C(O)c3ccc(c(Cl)c3)Oc3cc2cc(c3OC2OC(CO)C(O)C(O)C2OC2CC(C)(NCc3ccc(-c4ccc(Cl)cc4)cc3)C(O)C(C)O2)Oc2ccc(cc2Cl)C1O (stereo not drawn) [Compound 305],2,,,
CC1OC(OC2C(Oc3c4cc5cc3Oc3ccc(cc3Cl)C(O)C3NC(=O)C(NC(=O)C5NC(=O)C(CC(N)=O)NC(=O)C(NC(=O)Cc5cccs5)C(O)c5ccc(c(Cl)c5)O4)c4ccc(O)c(c4)-c4c(O)cc(O)cc4C(C(=O)O)NC3=O)OC(CO)C(O)C2O)CC(C)(NCc2ccc(-c3ccc(Cl)cc3)cc2)C1O (stereo not drawn) [Compound 318],2,,,
CC1OC(OC2C(Oc3c4cc5cc3Oc3ccc(cc3Cl)C(O)C3NC(=O)C(NC(=O)C5NC(=O)C(CC(N)=O)NC(=O)C(NC(=O)C(N)=O)C(O)c5ccc(c(Cl)c5)O4)c4ccc(O)c(c4)-c4c(O)cc(O)cc4C(C(=O)O)NC3=O)OC(CO)C(O)C2O)CC(C)(NCc2ccc(-c3ccc(Cl)cc3)cc2)C1O (stereo not drawn) [Compound 327],2,,,

# Source: US6518243B1, “Desleucyl glycopeptide antibiotics and methods of making same” (Trustees of Princeton University, priority 1999, dated 2003)
